Patent US7902373B2 (Pfizer Inc, priority 2006, dated 2011)

target: human recombinant H-PGDS (Homo sapiens, UniProt O60760); assay: Fluorescence intensity h-PGDS TBA enzyme assay; type: biochemical; conditions: Examples up to 622 (and 3a, 3b)
Sequence (O60760 whole entry): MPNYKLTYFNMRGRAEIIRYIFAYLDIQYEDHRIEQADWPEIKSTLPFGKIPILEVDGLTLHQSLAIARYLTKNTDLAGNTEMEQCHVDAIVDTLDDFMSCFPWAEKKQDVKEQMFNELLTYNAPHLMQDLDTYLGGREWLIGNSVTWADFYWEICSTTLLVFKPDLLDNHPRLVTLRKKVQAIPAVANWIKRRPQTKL

| SMILES | IC50 [nM] |
| --- | --- |
| COc1ccc(CC(C)N2CCC(NC(=O)c3ccc(-c4cccc(F)c4)nc3)CC2)cc1 (centres unmarked) [Example 534, 6-(3-Fluorophenyl)-N-{1-[2-(4-methoxyphenyl)-1-methylethyl]piperidin-4-yl}nicotinamide] | 0.234 |
| COc1ccc(C(C)N2CCC(NC(=O)c3ccc(-c4cccc(F)c4)nc3)CC2)cc1 (centres unmarked) [Example 535, 6-(3-Fluorophenyl)-N-{1-[1-(4-methoxyphenyl)ethyl]piperidin-4-yl}nicotinamide] | 2.11 |
| COc1ccc(C(C)N2CCC(NC(=O)c3ccc(-c4cccc(F)c4)nc3)CC2)cc1OC (centres unmarked) [Example 536, N-{1-[1-(3,4-Dimethoxyphenyl)ethyl]piperidin-4-yl}-6-(3-fluorophenyl)nicotinamide] | 1.75 |
| O=C(NC1CCN(C2CCC(=O)N(CC3CC3)CC2)CC1)c1ccc(-c2cccc(F)c2)nc1 (centres unmarked) [Example 537, N-{1-[1-(Cyclopropylmethyl)-7-oxoazepan-4-yl]piperidin-4-yl}-6-(3-fluorophenyl)nicotinamide] | 2.68 |
| CC(C)CN1CCC(N2CCC(NC(=O)c3ccc(-c4cccc(F)c4)nc3)CC2)CCC1=O (centres unmarked) [Example 538, 6-(3-Fluorophenyl)-N-[1-(1-isobutyl-7-oxoazepan-4-yl)piperidin-4-yl]nicotinamide] | 1.94 |
| COCCN1CCC(N2CCC(NC(=O)c3ccc(-c4cccc(F)c4)nc3)CC2)CCC1=O (centres unmarked) [Example 539, 6-(3-Fluorophenyl)-N-{1-[1-(2-methoxyethyl)-7-oxoazepan-4-yl]piperidin-4-yl}nicotinamide] | 2.71 |
| CC(c1cnn(-c2ccccc2)c1)N1CCC(NC(=O)c2ccc(-c3cccc(F)c3)nc2)CC1 (centres unmarked) [Example 540, 6-(3-Fluorophenyl)-N-{1-[1-(1-phenyl-1H-pyrazol-4-yl)ethyl]piperidin-4-yl}nicotinamide] | 1.99 |
| CCC(c1ccc(OC)c(OC)c1)N1CCC(NC(=O)c2ccc(-c3cccc(F)c3)nc2)CC1 (centres unmarked) [Example 541, N-{1-[1-(3,4-Dimethoxyphenyl)propyl]piperidin-4-yl}-6-(3-fluorophenyl)nicotinamide] | 0.951 |
| O=C(NC1CCN(C2CCC(=O)N(CC3CCC3)CC2)CC1)c1ccc(-c2cccc(F)c2)nc1 (centres unmarked) [Example 542, N-{1-[1-(Cyclobutylmethyl)-7-oxoazepan-4-yl]piperidin-4-yl}-6-(3-fluorophenyl)nicotinamide] | 1.68 |
| COc1ccc(C(C)N2CCC(NC(=O)c3ccc(-c4cccc(F)c4)nc3)CC2)c(OC)c1 (centres unmarked) [Example 543, N-{1-[1-(2,4-Dimethoxyphenyl)ethyl]piperidin-4-yl}-6-(3-fluorophenyl)nicotinamide] | 3.27 |
| COc1cc(OC)cc(C(C)N2CCC(NC(=O)c3ccc(-c4cccc(F)c4)nc3)CC2)c1 (centres unmarked) [Example 544, N-{1-[1-(3,5-Dimethoxyphenyl)ethyl]piperidin-4-yl}-6-(3-fluorophenyl)nicotinamide] | 1.27 |
| CCC(C)N1CCC(NC(=O)c2ccc(-c3cccc(F)c3)nc2)CC1 (centres unmarked) [Example 545, N-(1-sec-Butylpiperidin-4-yl)-6-(3-fluorophenyl)nicotinamide] | 2.65 |
| CC(=O)NC1CCC(N2CCC(NC(=O)c3ccc(-c4cccc(F)c4)nc3)CC2)CC1 (centres unmarked) [Example 546, N-{1-[4-(Acetylamino)cyclohexyl]piperidin-4-yl}-6-(3-fluorophenyl)nicotinamide] | 2.83 |
| O=C(NC1CCN(C2CCOCC2)CC1)c1ccc(-c2cccc(F)c2)nc1 [Example 547, 6-(3-Fluorophenyl)-N-[1-(tetrahydro-2H-pyran-4-yl)piperidin-4-yl]nicotinamide] | 1.14 |
| CC(CCn1cccn1)N1CCC(NC(=O)c2ccc(-c3cccc(F)c3)nc2)CC1 (centres unmarked) [Example 548, 6-(3-Fluorophenyl)-N-{1-[1-methyl-3-(1H-pyrazol-1-yl)propyl]piperidin-4-yl}nicotinamide] | 2.07 |
| COC1CCCC(N2CCC(NC(=O)c3ccc(-c4cccc(F)c4)nc3)CC2)C1 (centres unmarked) [Example 549, 6-(3-Fluorophenyl)-N-[1-(3-methoxycyclohexyl)piperidin-4-yl]nicotinamide] | 2.26 |
| CC(CCO)N1CCC(NC(=O)c2ccc(-c3cccc(F)c3)nc2)CC1 (centres unmarked) [Example 550, 6-(3-Fluorophenyl)-N-[1-(3-hydroxy-1-methylpropyl)piperidin-4-yl]nicotinamide] | 2.38 |

Continued, values first:

| IC50 [nM] | SMILES |
| --- | --- |
| 1.32 | O=C(NC1CCN(C2CCCC2)CC1)c1ccc(-c2cccc(F)c2)nc1 [Example 551, N-(1-Cyclopentylpiperidin-4-yl)-6-(3-fluorophenyl)nicotinamide] |
| 2.37 | O=C(NC1CCN(C2CNC2)CC1)c1ccc(-c2cccc(F)c2)nc1 [Example 552, N-(1-Azetidin-3-ylpiperidin-4-yl)-6-(3-fluorophenyl)nicotinamide] |
| 1.78 | COc1ccccc1OCC(C)N1CCC(NC(=O)c2ccc(-c3cccc(F)c3)nc2)CC1 (centres unmarked) [Example 553, 6-(3-Fluorophenyl)-N-{1-[2-(2-methoxyphenoxy)-1-methylethyl]piperidin-4-yl}nicotinamide] |
| 1.72 | O=C(NC1CCN(C2CCC(O)(c3cncnc3)CC2)CC1)c1ccc(-c2cccc(F)c2)nc1 (centres unmarked) [Example 554, 6-(3-Fluorophenyl)-N-[1-(4-hydroxy-4-pyrimidin-5-ylcyclohexyl)piperidin-4-yl]nicotinamide] |
| 0.928 | O=C(NC1CCN(C2CCC(O)(c3nccs3)CC2)CC1)c1ccc(-c2cccc(F)c2)nc1 (centres unmarked) [Example 555, 6-(3-Fluorophenyl)-N-{1-[4-hydroxy-4-(1,3-thiazol-2-yl)cyclohexyl]piperidin-4-yl}nicotinamide] |
| 0.364 | O=C(NC1CCN(C2CCC(Oc3ccccc3)CC2)CC1)c1ccc(-c2cccc(F)c2)nc1 (centres unmarked) [Example 556, 6-(3-Fluorophenyl)-N-[1-(4-phenoxycyclohexyl)piperidin-4-yl]nicotinamide] |
| 6.56 | NC(=O)CCN1CCC(N2CCC(NC(=O)c3ccc(-c4cccc(F)c4)nc3)CC2)CCC1=O (centres unmarked) [Example 557, N-{1-[1-(3-Amino-3-oxopropyl)-7-oxoazepan-4-yl]piperidin-4-yl}-6-(3-fluorophenyl)nicotinamide] |
| 0.345 | O=C(NC1CCN(C2CCC(O)(c3ccccc3)CC2)CC1)c1ccc(-c2cccc(F)c2)nc1 (centres unmarked) [Example 558, 6-(3-Fluorophenyl)-N-[1-(4-hydroxy-4-phenylcyclohexyl)piperidin-4-yl]nicotinamide] |
| 10.6 | CC(C)(C)OC(=O)c1ccc(N2CCC(NC(=O)c3ccc(-c4cccc(F)c4)nc3)CC2)nc1 [Example 559, tert-Butyl 6-[4-({[6-(3-fluorophenyl)pyridin-3-yl]carbonyl}amino)piperidin-1-yl]nicotinate] |
| 0.641 | O=C(O)c1ccc(N2CCC(NC(=O)c3ccc(-c4cccc(F)c4)nc3)CC2)nc1 [Example 560, 6-[4-({[6-(3-Fluorophenyl)pyridin-3-yl]carbonyl}amino)piperidin-1-yl]nicotinic acid] |
| 1.14 | CCN(CCO)C(=O)c1ccc(N2CCC(NC(=O)c3ccc(-c4cccc(F)c4)nc3)CC2)nc1 [Example 561, N-Ethyl-6-[4-({[6-(3-fluorophenyl)pyridin-3-yl]carbonyl}amino)piperidin-1-yl]-N-(2-hydroxyethyl)nicotinamide] |
| 1.74 | C=C(C)CN(C)C(=O)c1ccc(N2CCC(NC(=O)c3ccc(-c4cccc(F)c4)nc3)CC2)nc1 [Example 562, 6-[4-({[6-(3-Fluorophenyl)pyridin-3-yl]carbonyl}amino)piperidin-1-yl]-N-methyl-N-(2-methylprop-2-en-1-yl)nicotinamide] |
| 0.981 | C=CCN(C)C(=O)c1ccc(N2CCC(NC(=O)c3ccc(-c4cccc(F)c4)nc3)CC2)nc1 [Example 563, N-Allyl-6-[4-({[6-(3-fluorophenyl)pyridin-3-yl]carbonyl}amino)piperidin-1-yl]-N-methylnicotinamide] |
| 1.09 | O=C(NC1CCN(c2ccc(C(=O)N3CCC3)cn2)CC1)c1ccc(-c2cccc(F)c2)nc1 [Example 564, N-{1-[5-(Azetidin-1-ylcarbonyl)pyridin-2-yl]piperidin-4-yl}-6-(3-fluorophenyl)nicotinamide] |
| 1.05 | C#CCN(C)C(=O)c1ccc(N2CCC(NC(=O)c3ccc(-c4cccc(F)c4)nc3)CC2)nc1 [Example 565, 6-[4-({[6-(3-Fluorophenyl)pyridin-3-yl]carbonyl}amino)piperidin-1-yl]-N-methyl-N-prop-2-yn-1-ylnicotinamide] |
| 1.82 | CCN(C)C(=O)c1ccc(N2CCC(NC(=O)c3ccc(-c4cccc(F)c4)nc3)CC2)nc1 [Example 566, N-Ethyl-6-[4-({[6-(3-fluorophenyl)pyridin-3-yl]carbonyl}amino)piperidin-1-yl]-N-methylnicotinamide] |
| 0.867 | CC(CO)N(C)C(=O)c1ccc(N2CCC(NC(=O)c3ccc(-c4cccc(F)c4)nc3)CC2)nc1 (centres unmarked) [Example 567, 6-[4-({[6-(3-Fluorophenyl)pyridin-3-yl]carbonyl}amino)piperidin-1-yl]-N-(2-hydroxy-1-methylethyl)-N-methylnicotinamide] |
| 0.649 | O=C(NC1CCN(c2ccc(C(=O)N3CCC(F)C3)cn2)CC1)c1ccc(-c2cccc(F)c2)nc1 (centres unmarked) [Example 568, 6-(3-Fluorophenyl)-N-(1-{5-[(3-fluoropyrrolidin-1-yl)carbonyl]pyridin-2-yl}piperidin-4-yl)nicotinamide] |
| 2.13 | CN(C(=O)c1ccc(N2CCC(NC(=O)c3ccc(-c4cccc(F)c4)nc3)CC2)nc1)C1CCC1 [Example 569, N-Cyclobutyl-6-[4-({[6-(3-fluorophenyl)pyridin-3-yl]carbonyl}amino)piperidin-1-yl]-N-methylnicotinamide] |
| 1.41 | CCN(CC)C(=O)c1ccc(N2CCC(NC(=O)c3ccc(-c4cccc(F)c4)nc3)CC2)nc1 [Example 570, N,N-Diethyl-6-[4-({[6-(3-fluorophenyl)pyridin-3-yl]carbonyl}amino)piperidin-1-yl]nicotinamide] |
| 1.04 | O=C(NC1CCN(c2ccc(C(=O)N3CC=CC3)cn2)CC1)c1ccc(-c2cccc(F)c2)nc1 [Example 571, N-{1-[5-(2,5-Dihydro-1H-pyrrol-1-ylcarbonyl)pyridin-2-yl]piperidin-4-yl)-6-(3-fluorophenyl)nicotinamide] |
